Test results published in patent publication US12697330B2, “Therapeutic methods using vadadustat” (Akebia Therapeutics, Inc., priority 2021, dated 2026).

Tested on: hemoglobin (Hb)
Assay: Phase 2 study in hemodialysis subjects converting from epoetin alfa, Main Study: efficacy (hemoglobin)
Assay type: in vivo, human
Description: The primary objective was to assess the efficacy and safety of daily dosing of vadadustat compared to epoetin alfa for 12 weeks in hemodialysis subjects. Additional objectives included to assess the efficacy and safety of three times weekly (TIW) dosing of vadadustat in selected hemodialysis subjects who have been successfully managed with daily dosing of vadadustat through Week 12, to evaluate the PK/PD of daily and TIW dosing of vadadustat in hemodialysis subjects compared to epoetin alfa, and to assess the efficacy and safety of several dosing strategies of vadadustat compared to epoetin alfa during a 20-week Treatment Period in hemodialysis subjects.
The Main study population consisted of adult subjects receiving chronic, outpatient in-center hemodialysis three times weekly (TIW), with 2 screening hemoglobin (Hb) values between 8.5 and 11.0 g/dL (inclusive) and on maintenance treatment with epoetin alfa <300 U/kg/week.
Efficacy Endpoints. The primary endpoint was the mean change in Hb between Baseline (average pretreatment Hb) and the primary evaluation period (average Hb from Weeks 10 to 12). Secondary endpoints included proportion of subjects with Hb values within the target range (10.0 to 11.0 g/dL, inclusive) at the primary evaluation period (Weeks 10-12) and for subjects who transitioned to TIW vadadustat dosing, mean change in Hb from primary evaluation period (average Hb from Weeks 10-12) to the secondary period (average Hb from Weeks 18-20). Other secondary endpoints included mean change in Hb from Baseline (average pretreatment Hb) and the secondary evaluation period (average Hb from Weeks 18-20), proportion of subjects with Hb values within the target range (10.0 to 11.0 g/dL, inclusive) at the secondary evaluation period (Weeks 18 to 20), for subjects who transitioned to TIW vadadustat dosing, proportion of subjects with Hb values within the target range (10.0 to 11.0 g/dL, inclusive) at the secondary evaluation period (Weeks 18-20), proportion of subjects with a mean increase in Hb from Baseline to the primary evaluation period ≥0.5 g/dL (average Hb from Weeks 10-12) or with Hb values within the target range (10.0 to 11.0 g/dL, inclusive) at the primary evaluation period (Weeks 10-12), proportion of subject with a mean increase in Hb from Baseline to the secondary evaluation period ≥0.5 g/dL (average Hb from Weeks 18-20) or with Hb values within the target range (10.0 to 11.0 g/dL, inclusive) at the secondary evaluation period (Weeks 18-20), intravenous (IV) iron supplementation, ESA rescue, and RBC transfusion.
Study Design. This was a Phase 2, randomized, open-label study to evaluate vadadustat for the treatment of anemia in hemodialysis subjects converting from epoetin alfa therapy. For all subjects (Main study and ESA hyporesponder parallel study), the study included a Screening Period, a study Treatment Period, and a Safety Follow-Up Period as described below. PK and PD sampling were done throughout the study. The aim was to achieve and maintain Hb levels within the target range of 10.0 to 11.0 g/dL, inclusive, while targeting the middle of the range and minimizing excursions outside the target range.
Randomization. Subjects were randomized to either a vadadustat treatment arm or epoetin alfa treatment arm. Randomization was stratified by mean weekly epoetin alfa dose calculated over a period of 8 weeks prior to SV2: low epoetin alfa dose group (≤90 U/kg/week) or high epoetin alfa dose group (>90 to <300 U/kg/week). In the low epoetin alfa dose group, subjects were randomized in a 3:3:2 ratio to receive either an initial vadadustat daily dose of 450 mg (3 tablets) or 300 mg (2 tablets), or epoetin alfa. In the high epoetin alfa dose group, subjects were randomized in a 3:3:3:2 ratio to receive either an initial vadadustat daily dose of 600 mg (4 tablets), 450 mg (3 tablets) or 300 mg (2 tablets), or epoetin alfa.
Study Treatment Period (Baseline/Day 1 to Week 20). […]

[1] = Primary Evaluation Period (Average of Weeks 10 to 12), Vada 300 mg, High Epoetin Alfa (>90 to <300 U/kg/week)
[2] = Primary Evaluation Period (Average of Weeks 10 to 12), Vada 300 mg, Low Epoetin Alfa (<90 U/kg/week)
[3] = Primary Evaluation Period (Average of Weeks 10 to 12), Vada 450 mg, High Epoetin Alfa (>90 to <300 U/kg/week)
[4] = Primary Evaluation Period (Average of Weeks 10 to 12), Vada 450 mg, Low Epoetin Alfa (<90 U/kg/week)
[5] = Primary Evaluation Period (Average of Weeks 10 to 12), Vada 600 mg, High Epoetin Alfa (>90 to <300 U/kg/week)
[6] = Secondary Evaluation Period (Average of Weeks 18 to 20), Vada 300 mg, High Epoetin Alfa (>90 to <300 U/kg/week)
[7] = Secondary Evaluation Period (Average of Weeks 18 to 20), Vada 300 mg, Low Epoetin Alfa (<90 U/kg/week)
[8] = Secondary Evaluation Period (Average of Weeks 18 to 20), Vada 450 mg, High Epoetin Alfa (>90 to <300 U/kg/week)
[9] = Secondary Evaluation Period (Average of Weeks 18 to 20), Vada 450 mg, Low Epoetin Alfa (<90 U/kg/week)
[10] = Secondary Evaluation Period (Average of Weeks 18 to 20), Vada 600 mg, High Epoetin Alfa (>90 to <300 U/kg/week)
[11] = Vada 300 mg, High Epoetin Alfa (>90 to <300 U/kg/week)
[12] = Vada 300 mg, Low Epoetin Alfa (<90 U/kg/week)
[13] = Vada 450 mg, High Epoetin Alfa (>90 to <300 U/kg/week)
[14] = Vada 450 mg, Low Epoetin Alfa (<90 U/kg/week)
[15] = Vada 600 mg, High Epoetin Alfa (>90 to <300 U/kg/week)

## O=C(O)CNC(=O)c1ncc(-c2cccc(Cl)c2)cc1O [Compound 1, {[5-(3-chlorophenyl)-3-hydroxypyridine-2-carbonyl]amino}acetic acid]
[1]
  Subjects with Hb Higher than Target range (10.0 to 11.0 g/dL), number (percentage of N2): 0
  Subjects with Hb Lower than Target range (10.0 to 11.0 g/dL), number (percentage of N2): 11 (91.7)
  Subjects with Hb Within Target range (10.0 to 11.0 g/dL), number (percentage of N2): 1 (8.3)
[2]
  Subjects with Hb Higher than Target range (10.0 to 11.0 g/dL), number (percentage of N2): 2 (6.7)
  Subjects with Hb Lower than Target range (10.0 to 11.0 g/dL), number (percentage of N2): 16 (53.3)
  Subjects with Hb Within Target range (10.0 to 11.0 g/dL), number (percentage of N2): 12 (40.0)
[3]
  Subjects with Hb Higher than Target range (10.0 to 11.0 g/dL), number (percentage of N2): 4 (22.2)
  Subjects with Hb Lower than Target range (10.0 to 11.0 g/dL), number (percentage of N2): 10 (55.6)
  Subjects with Hb Within Target range (10.0 to 11.0 g/dL), number (percentage of N2): 4 (22.2)
[4]
  Subjects with Hb Higher than Target range (10.0 to 11.0 g/dL), number (percentage of N2): 6 (20.0)
  Subjects with Hb Lower than Target range (10.0 to 11.0 g/dL), number (percentage of N2): 11 (36.7)
  Subjects with Hb Within Target range (10.0 to 11.0 g/dL), number (percentage of N2): 13 (43.3)
[5]
  Subjects with Hb Higher than Target range (10.0 to 11.0 g/dL), number (percentage of N2): 2 (14.3)
  Subjects with Hb Lower than Target range (10.0 to 11.0 g/dL), number (percentage of N2): 8 (57.1)
  Subjects with Hb Within Target range (10.0 to 11.0 g/dL), number (percentage of N2): 4 (28.6)
[6]
  Subjects with Hb Higher than Target range (10.0 to 11.0 g/dL), number (percentage of N2): 1 (14.3)
  Subjects with Hb Lower than Target range (10.0 to 11.0 g/dL), number (percentage of N2): 4 (57.1)
  Subjects with Hb Within Target range (10.0 to 11.0 g/dL), number (percentage of N2): 2 (28.6)
[7]
  Subjects with Hb Higher than Target range (10.0 to 11.0 g/dL), number (percentage of N2): 4 (15.4)
  Subjects with Hb Lower than Target range (10.0 to 11.0 g/dL), number (percentage of N2): 16 (61.5)
  Subjects with Hb Within Target range (10.0 to 11.0 g/dL), number (percentage of N2): 6 (23.1)
[8]
  Subjects with Hb Higher than Target range (10.0 to 11.0 g/dL), number (percentage of N2): 2 (14.3)
  Subjects with Hb Lower than Target range (10.0 to 11.0 g/dL), number (percentage of N2): 9 (64.3)
  Subjects with Hb Within Target range (10.0 to 11.0 g/dL), number (percentage of N2): 3 (21.4)
[9]
  Subjects with Hb Higher than Target range (10.0 to 11.0 g/dL), number (percentage of N2): 3 (12.5)
  Subjects with Hb Lower than Target range (10.0 to 11.0 g/dL), number (percentage of N2): 14 (58.3)
  Subjects with Hb Within Target range (10.0 to 11.0 g/dL), number (percentage of N2): 7 (29.2)
[10]
  Subjects with Hb Higher than Target range (10.0 to 11.0 g/dL), number (percentage of N2): 1 (10.0)
  Subjects with Hb Lower than Target range (10.0 to 11.0 g/dL), number (percentage of N2): 7 (70.0)
  Subjects with Hb Within Target range (10.0 to 11.0 g/dL), number (percentage of N2): 2 (20.0)
[11]
  Change from Baseline in Hb at Primary Evaluation Period, Mean (SD): −1.048 (0.730) g/dL
  Change from Baseline in Hb at Primary Evaluation Period, Median: -0.967 g/dL
  Change from Baseline in Hb at Secondary Evaluation Period, Mean (SD): 0.017 (1.086) g/dL
  Change from Baseline in Hb at Secondary Evaluation Period, Median: -0.325 g/dL
  Hb at Primary Evaluation Period (Average of Weeks 10 to 12), Mean (SD): 8.82 (0.761) g/dL
  Hb at Primary Evaluation Period (Average of Weeks 10 to 12), Median: 8.750 g/dL
  Hb at Secondary Evaluation Period (Average of Weeks 18 to 20), Mean (SD): 9.88 (1.027) g/dL
  Hb at Secondary Evaluation Period (Average of Weeks 18 to 20), Median: 9.575 g/dL
[12]
  Change from Baseline in Hb at Primary Evaluation Period, Mean (SD): −0.421 (0.732) g/dL
  Change from Baseline in Hb at Primary Evaluation Period, Median: -0.450 g/dL
  Change from Baseline in Hb at Secondary Evaluation Period, Mean (SD): −0.327 (1.086) g/dL
  Change from Baseline in Hb at Secondary Evaluation Period, Median: -0.300 g/dL
  Hb at Primary Evaluation Period (Average of Weeks 10 to 12), Mean (SD): 9.78 (0.742) g/dL
  Hb at Primary Evaluation Period (Average of Weeks 10 to 12), Median: 9.767 g/dL
  Hb at Secondary Evaluation Period (Average of Weeks 18 to 20), Mean (SD): 9.86 (0.932) g/dL
  Hb at Secondary Evaluation Period (Average of Weeks 18 to 20), Median: 9.775 g/dL
[13]
  Change from Baseline in Hb at Primary Evaluation Period, Mean (SD): −0.130 (1.033) g/dL
  Change from Baseline in Hb at Primary Evaluation Period, Median: -0.250 g/dL
  Change from Baseline in Hb at Secondary Evaluation Period, Mean (SD): −0.458 (0.895) g/dL
  Change from Baseline in Hb at Secondary Evaluation Period, Median: -0.575 g/dL
  Hb at Primary Evaluation Period (Average of Weeks 10 to 12), Mean (SD): 9.96 (1.121) g/dL
  Hb at Primary Evaluation Period (Average of Weeks 10 to 12), Median: 9.750 g/dL
  Hb at Secondary Evaluation Period (Average of Weeks 18 to 20), Mean (SD): 9.63 (0.954) g/dL
  Hb at Secondary Evaluation Period (Average of Weeks 18 to 20), Median: 9.475 g/dL
[14]
  Change from Baseline in Hb at Primary Evaluation Period, Mean (SD): −0.074 (1.085) g/dL
  Change from Baseline in Hb at Primary Evaluation Period, Median: 0.017 g/dL
  Change from Baseline in Hb at Secondary Evaluation Period, Mean (SD): −0.273 (0.827) g/dL
  Change from Baseline in Hb at Secondary Evaluation Period, Median: -0.300 g/dL
  Hb at Primary Evaluation Period (Average of Weeks 10 to 12), Mean (SD): 10.08 (1.226) g/dL
  Hb at Primary Evaluation Period (Average of Weeks 10 to 12), Median: 10.550 g/dL
  Hb at Secondary Evaluation Period (Average of Weeks 18 to 20), Mean (SD): 9.91 (0.909) g/dL
  Hb at Secondary Evaluation Period (Average of Weeks 18 to 20), Median: 9.917 g/dL
[15]
  Change from Baseline in Hb at Primary Evaluation Period, Mean (SD): −0.541 (1.124) g/dL
  Change from Baseline in Hb at Primary Evaluation Period, Median: -0.133 g/dL
  Change from Baseline in Hb at Secondary Evaluation Period, Mean (SD): −0.500 (1.025) g/dL
  Change from Baseline in Hb at Secondary Evaluation Period, Median: -0.300 g/dL
  Hb at Primary Evaluation Period (Average of Weeks 10 to 12), Mean (SD): 9.62 (1.026) g/dL
  Hb at Primary Evaluation Period (Average of Weeks 10 to 12), Median: 9.233 g/dL
  Hb at Secondary Evaluation Period (Average of Weeks 18 to 20), Mean (SD): 9.57 (0.871) g/dL
  Hb at Secondary Evaluation Period (Average of Weeks 18 to 20), Median: 9.450 g/dL
